Laboratory results published in publication PMC5817852 (The Open Medicinal Chemistry Journal, 2018).
Like-named read-outs stand apart in the source and are kept apart here.

What was measured:
Type in all cases: cell-based
[1] = system: HT29 colorectal carcinoma; assay: qHTS cell viability screen (Cell Titer Glo), HT29
[2] = system: PC3 prostate cancer cell line; assay: qHTS cell viability screen (Cell Titer Glo), PC3; details: PC3 prostate, 72 hours, cell viability Cell Titer Glo, read-out: CC50 PC3
[3] = system: MDA-MB-231 breast cancer cell line; assay: qHTS cell viability screen (Cell Titer Glo), MDA-MB-231
[4] = Homo sapiens, HT-29, 72 h, HT29 colorectal carcinoma, 72 hours, cell viability Cell Titer Glo, read-out: CC50 HT29
[5] = Homo sapiens, MDA-MB-231, 96 h, MDA-MB-231 breast, 96 hours, cell viability Cell Titer Glo, read-out: CC50 MDA-MB-231
[6] = HT29 colorectal carcinoma, 72 hours, cell viability Cell Titer Glo, read-out: CC50 HT29
[7] = MDA-MB-231 breast, 96 hours, cell viability Cell Titer Glo, read-out: CC50 MDA-MB-231

SMILES: CSc1ccc(/C=C2/C(C)=C(CCNCCN(C)C)c3cc(F)ccc32)cc1 [Compound 10]
- CC50 [1, 4]: 1.97 ± 0.18 µM
- CC50 ([2]; 72 h): 4.38 ± 0.25 µM
- CC50 [3, 5]: 3.42 ± 1.5 µM

SMILES: CC1=C(CCNCc2ccccc2)c2cc(F)ccc2/C1=C\c1ccc([S+](C)[O-])cc1 (stereo not drawn) [Compound 11]
- CC50 [1, 4]: 15.1 ± 1.42 µM
- CC50 ([2]; 72 h): 41.5 ± 5 µM
- CC50 [3, 5]: 48.6 ± 7.85 µM

SMILES: CSc1ccc(/C=C2/C(C)=C(CN)c3cc(F)ccc32)cc1 [Compound 16]
- CC50 [1, 4]: 16 ± 6.08 µM
- CC50 ([2]; 72 h): 33.6 ± 6.59 µM
- CC50 [3, 5]: 19.3 ± 2.12 µM

SMILES: CSc1ccc(/C=C2/C(C)=C(CNC(=O)Cc3ccccc3)c3cc(F)ccc32)cc1 [Compound 18]
- CC50 [1, 4]: 3.56 ± 1.25 µM
- CC50 ([2]; 72 h): 18.9 ± 9.71 µM
- CC50 [3, 5]: 4.06 ± 1.97 µM

SMILES: CSc1ccc(/C=C2/C(C)=C(CNC(=O)c3ccco3)c3cc(F)ccc32)cc1 [Compound 19]
- CC50 [1, 6]: 33.2 ± 3.43 µM
- CC50 [2]: 39.8 ± 6.81 µM
- CC50 [3, 7]: 41.2 ± 7.6 µM

SMILES: COc1cc(/C=C2/C(C)=C(CNC(=O)c3ccco3)c3cc(F)ccc32)cc(OC)c1OC [Compound 27]
- CC50 [1, 6]: > 50 µM
- CC50 [2]: > 50 µM
- CC50 [3, 7]: > 50 µM

SMILES: CSc1ccc(/C=C2/C(C)=C(CNS(=O)(=O)c3ccc(C)cc3)c3cc(F)ccc32)cc1 [Compound 37]
- CC50 [1, 6]: 8.08 ± 0.6 µM
- CC50 [2]: > 50 µM
- CC50 [3, 7]: 20.5 ± 5.18 µM

SMILES: CSc1ccc(/C=C2/C(C)=C(CNS(=O)(=O)c3cccc4c(N(C)C)cccc34)c3cc(F)ccc32)cc1 [Compound 40]
- CC50 [1, 6]: 38.4 ± 10.1 µM
- CC50 [2]: > 50 µM
- CC50 [3, 7]: > 50 µM

SMILES: COc1cc(/C=C2/C(C)=C(CNS(C)(=O)=O)c3cc(F)ccc32)cc(OC)c1OC [Compound 41]
- CC50 [1, 6]: 20 ± 4.86 µM
- CC50 [2]: 18.9 ± 2.47 µM
- CC50 [3, 7]: 12.9 ± 1.79 µM

SMILES: COc1cc(/C=C2/C(C)=C(CNS(=O)(=O)c3ccccc3)c3cc(F)ccc32)cc(OC)c1OC [Compound 43]
- CC50 [1, 6]: 43.8 ± 23 µM
- CC50 [2]: 40.9 ± 16.8 µM
- CC50 [3, 7]: 16.3 ± 3.96 µM

SMILES: COc1cc(/C=C2/C(C)=C(CNS(=O)(=O)c3ccc(C)cc3)c3cc(F)ccc32)cc(OC)c1OC [Compound 44]
- CC50 [1, 6]: > 50 µM
- CC50 [2]: > 50 µM
- CC50 [3, 7]: 44.5 ± 25.7 µM

SMILES: COc1cc(/C=C2/C(C)=C(CNS(=O)(=O)c3cccc4ccccc34)c3cc(F)ccc32)cc(OC)c1OC [Compound 45]
- CC50 [1, 6]: > 50 µM
- CC50 [2]: > 50 µM
- CC50 [3, 7]: > 50 µM

SMILES: COc1cc(/C=C2/C(C)=C(CNS(=O)(=O)c3cccc4c(N(C)C)cccc34)c3cc(F)ccc32)cc(OC)c1OC [Compound 47]
- CC50 [1, 6]: > 50 µM
- CC50 [2]: > 50 µM
- CC50 [3, 7]: > 50 µM

SMILES: CSc1ccc(/C=C2/C(C)=C(CN(Cc3ccccc3)Cc3ccccc3)c3cc(F)ccc32)cc1 [Compound 48]
- CC50 [1, 4]: > 50 µM
- CC50 ([2]; 72 h): > 50 µM
- CC50 [3, 5]: > 50 µM

SMILES: CSc1ccc(/C=C2/C(C)=C(CN(Cc3ccc(F)cc3)Cc3ccc(F)cc3)c3cc(F)ccc32)cc1 [Compound 50]
- CC50 [1]: > 50 µM
- CC50 [2]: > 50 µM
- CC50 [3]: > 50 µM

SMILES: CSc1ccc(/C=C2/C(C)=C(CN(Cc3ccc(N(C)C)cc3)Cc3ccc(N(C)C)cc3)c3cc(F)ccc32)cc1 [Compound 51]
- CC50 [1]: > 50 µM
- CC50 [2]: > 50 µM
- CC50 [3]: > 50 µM

SMILES: CSc1ccc(/C=C2/C(C)=C(CN(Cc3ccc4ccccc4c3)Cc3ccc4ccccc4c3)c3cc(F)ccc32)cc1 [Compound 52]
- CC50 [1]: > 50 µM
- CC50 [2]: > 50 µM
- CC50 [3]: > 50 µM

SMILES: CSc1ccc(/C=C2/C(C)=C(CN(CCc3ccccc3)CCc3ccccc3)c3cc(F)ccc32)cc1 [Compound 53]
- CC50 [1]: > 50 µM
- CC50 [2]: > 50 µM
- CC50 [3]: > 50 µM

SMILES: CSc1ccc(/C=C2/C(C)=C(CN(Cc3ccco3)Cc3ccco3)c3cc(F)ccc32)cc1 [Compound 54]
- CC50 [1]: > 50 µM
- CC50 [2]: > 50 µM
- CC50 [3]: 48.8 ± 20.3 µM

SMILES: COc1cc(/C=C2/C(C)=C(CN(Cc3ccccc3)Cc3ccccc3)c3cc(F)ccc32)cc(OC)c1OC [Compound 55]
- CC50 [1]: > 50 µM
- CC50 [2]: > 50 µM
- CC50 [3]: > 50 µM

SMILES: COc1cc(/C=C2/C(C)=C(CN(Cc3ccc(F)cc3)Cc3ccc(F)cc3)c3cc(F)ccc32)cc(OC)c1OC [Compound 57]
- CC50 [1]: > 50 µM
- CC50 [2]: > 50 µM
- CC50 [3]: > 50 µM
